Consider 19 compounds from PubChem BioAssay AID330 (DTP/NCI, 2004).

“And” between values parts separate entries of the source, which are not always exact repeats. Identical values can stand only once. Inconclusive results and toxic doses are left out. Peptide text beside a SMILES is read from it.

In this test the test system is P388 leukemia ip, CD2F1 mice, survival T/C. The test is described as follows: NCI In Vivo Anticancer Drug Screen. Data for tumor model P388 Leukemia (intraperitoneal) in CD2F1 (CDF1) mice. The following applies: endpoint: median survival time, higher = longer survival. The method, boiled down: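 Mice carrying the transplanted tumor received test compound or vehicle. Survival was recorded in each group, and the value is the treated-group measurement divided by that of the vehicle-treated control group.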

[1] abbreviates: dose: 7.5 mg/kg/injection, schedule: Q01DX009 (ip), vehicle: saline.
[2] abbreviates: dose: 15.0 mg/kg/injection, schedule: Q01DX009 (ip), vehicle: saline.
Where [3] appears, read: dose: 30.0 mg/kg/injection, schedule: Q01DX009 (ip), vehicle: saline.
[4] abbreviates: dose: 50.0 mg/kg/injection, schedule: Q01DX005 (ip), vehicle: saline with Tween-80.
[5] abbreviates: dose: 100.0 mg/kg/injection, schedule: Q01DX005 (ip), vehicle: saline with Tween-80.
The mark [6] stands for this setting: dose: 200.0 mg/kg/injection, schedule: Q01DX005 (ip), vehicle: saline with Tween-80.
The mark [7] stands for this setting: dose: 50.0 mg/kg/injection, schedule: Q01DX005 (ip), vehicle: Klucel (hydroxypropylcellulose) (HPC).
The mark [8] stands for this setting: dose: 100.0 mg/kg/injection, schedule: Q01DX005 (ip), vehicle: Klucel (hydroxypropylcellulose) (HPC).
The mark [9] stands for this setting: dose: 200.0 mg/kg/injection, schedule: Q01DX005 (ip), vehicle: Klucel (hydroxypropylcellulose) (HPC).
The mark [10] stands for this setting: dose: 100.0 mg/kg/injection, schedule: Q01DX009 (ip), vehicle: saline with Tween-80.
Where [11] appears, read: dose: 200.0 mg/kg/injection, schedule: Q01DX009 (ip), vehicle: saline with Tween-80.
Setting [12] is: dose: 60.0 mg/kg/injection, schedule: Q01DX005 (ip), vehicle: saline.
[13] abbreviates: dose: 120.0 mg/kg/injection, schedule: Q01DX005 (ip), vehicle: saline.
The mark [14] stands for this setting: dose: 240.0 mg/kg/injection, schedule: Q01DX005 (ip), vehicle: saline.

As to `NC(Cc1cnc[nH]1)C(=O)N1CCCC1C(=O)NC(CCC(=O)O)C(=O)O` (stereo not drawn) (H-His-Pro-Glu-OH; configuration not given here), the T/C by setting is: under setting [1], 102 % of control; under setting [2], 100 % of control; under setting [3], 109 % of control.

As for `CCCNNC(=O)c1ccncc1`, the T/C is 100 % of control under setting [4], 96 % of control under setting [5] and 105 % of control under setting [6].

Turning to `O=C1CCCCC12CCCC2`, the T/C runs as follows: (dose: 87.5 mg/kg/injection, schedule: Q01DX001 (ip), vehicle: saline sonified) 100 % of control; (dose: 175.0 mg/kg/injection, schedule: Q01DX001 (ip), vehicle: saline sonified) 100 % of control; (dose: 250.0 mg/kg/injection, schedule: Q01DX001 (ip), vehicle: saline sonified) 105 % of control.

In the case of `CC1OC2=C(CC1O)C(=O)c1ccccc1C2=O` (stereo not given), the T/C reads like this: (dose: 100.0 mg/kg/injection, schedule: Q01DX001 (ip), vehicle: Klucel (hydroxypropylcellulose) (HPC)) 102 % of control; (dose: 200.0 mg/kg/injection, schedule: Q01DX001 (ip), vehicle: Klucel (hydroxypropylcellulose) (HPC)) 102 % of control; (dose: 400.0 mg/kg/injection, schedule: Q01DX001 (ip), vehicle: Klucel (hydroxypropylcellulose) (HPC)) 100 % of control.

On to `CC1=C(C(N)=O)C(c2ccccc2)NC(=S)N1` (stereo not given), for which the T/C was 101 % of control (dose: 3.12 mg/kg/injection, schedule: Q01DX005 (ip), vehicle: Klucel (hydroxypropylcellulose) (HPC)); 95 % of control (dose: 6.25 mg/kg/injection, schedule: Q01DX005 (ip), vehicle: Klucel (hydroxypropylcellulose) (HPC)); 100 % of control (dose: 12.5 mg/kg/injection, schedule: Q01DX005 (ip), vehicle: Klucel (hydroxypropylcellulose) (HPC)); 100 % of control and 101 % of control (2×) (dose: 25.0 mg/kg/injection, schedule: Q01DX005 (ip), vehicle: Klucel (hydroxypropylcellulose) (HPC)).

For the compound `O=C(c1ccccc1)c1cnc2ccccc2c1`, the T/C is, setting by setting: under setting [7], 101 % of control; under setting [8], 101 % of control; under setting [9], 104 % of control.

Take `CC(=O)N(C(C)=O)/C(=C/c1cn(C(C)=O)c2ccccc12)C(=O)c1ccc(C)cc1`: the T/C reads like this: (dose: 100.0 mg/kg/injection, schedule: Q01DX001 (ip), vehicle: saline with Tween-80) 105 % of control; (dose: 200.0 mg/kg/injection, schedule: Q01DX001 (ip), vehicle: saline with Tween-80) 104 % of control; (dose: 400.0 mg/kg/injection, schedule: Q01DX001 (ip), vehicle: saline with Tween-80) 98 % of control.

For `CN(C)c1ccc(/C=[N+](\[O-])C(C)(C)CO)cc1`, the T/C is, setting by setting: (dose: 6.25 mg/kg/injection, schedule: Q01DX009 (ip), vehicle: saline with Tween-80) 100 % of control; (dose: 12.5 mg/kg/injection, schedule: Q01DX009 (ip), vehicle: saline with Tween-80) 102 % of control; (dose: 25.0 mg/kg/injection, schedule: Q01DX009 (ip), vehicle: saline with Tween-80) 100 % of control; under setting [10], 96 % of control; under setting [11], 97 % of control.

With `CN(C)CCCNc1ccc(NCCCN(C)C)c2c1C(=O)c1ccccc1C2=O`, the T/C is 100 % of control (dose: 3.75 mg/kg/injection, schedule: Q01DX009 (ip), vehicle: saline); 102 % of control under setting [1]; 104 % of control (dose: 12.5 mg/kg/injection, schedule: Q01DX009 (ip), vehicle: water); 102 % of control under setting [2]; 103 % of control (dose: 25.0 mg/kg/injection, schedule: Q01DX009 (ip), vehicle: water); 100 % of control under setting [3]. For the same compound, the T/C (dose: 60.0 mg/kg/injection, schedule: Q01DX009 (ip), vehicle: saline) is 100 % of control.

Regarding `CC1CCC(n2cnc3c(=S)nc[nH]c32)O1` (stereo not given), the T/C is 104 % of control (dose: 66.0 mg/kg/injection, schedule: Q01DX009 (ip), vehicle: saline with Tween-80); 113 % of control under setting [10]; 109 % of control (dose: 100.0 mg/kg/injection, schedule: Q04DX003 (ip), vehicle: saline with Tween-80); 90 % of control (dose: 150.0 mg/kg/injection, schedule: Q01DX009 (ip), vehicle: saline with Tween-80); 100 % of control under setting [11]; 118 % of control (dose: 200.0 mg/kg/injection, schedule: Q04DX003 (ip), vehicle: saline with Tween-80). Further, the T/C (dose: 400.0 mg/kg/injection, schedule: Q04DX003 (ip), vehicle: saline with Tween-80) was 118 % of control.

In the case of `CC(C)(Oc1ccc(C(=O)c2ccc(Cl)c(Cl)c2)cc1)C(=O)O`, the T/C was 94 % of control (dose: 50.0 mg/kg/injection, schedule: Q01DX009 (ip), vehicle: saline with Tween-80); 102 % of control under setting [10]; 107 % of control under setting [11].

`CNc1cc[nH]c(=O)c1NC(C)=O`: the T/C reads like this: under setting [12], 100 % of control; under setting [13], 101 % of control; under setting [14], 106 % of control.

For the compound `CCCN(CCC)c1cc(=O)nc2ccccn12`, the T/C was 100 % of control under setting [12], 106 % of control under setting [13] and 106 % of control under setting [14].

Turning to `ClCCN1c2ccccc2Oc2cc3ccccc3cc21`, the T/C is 101 % of control under setting [4], 110 % of control under setting [5] and 100 % of control under setting [6].

Turning to `CCC(=NCCN=C(CC)c1cc(C)ccc1O)c1cc(C)ccc1O`, the T/C reads like this: under setting [7], 101 % of control; under setting [8], 108 % of control; under setting [9], 111 % of control.

Take `COc1cc(OC2OC(CO)C(O)C(O)C2O)ccc1/C=C\C(=O)c1ccc(OC2OC(CO)C(O)C(O)C2O)cc1` (stereo not given): the T/C is 91 % of control (dose: 100.0 mg/kg/injection, schedule: Q04DX002 (ip), vehicle: saline with Tween-80); 96 % of control (dose: 200.0 mg/kg/injection, schedule: Q04DX002 (ip), vehicle: saline with Tween-80); 96 % of control (dose: 400.0 mg/kg/injection, schedule: Q04DX002 (ip), vehicle: saline with Tween-80).

For `Cc1ccc2c(c1)C(=O)n1cccc1C(O)N2` (stereo not given), the T/C is 100 % of control (dose: 0.1 mg/kg/injection, schedule: Q01DX005 (ip), vehicle: water); 99 % of control (dose: 0.2 mg/kg/injection, schedule: Q01DX005 (ip), vehicle: water); 99 % of control (dose: 0.4 mg/kg/injection, schedule: Q01DX005 (ip), vehicle: water); 98 % of control (dose: 0.8 mg/kg/injection, schedule: Q01DX005 (ip), vehicle: water); 89 % of control (dose: 1.6 mg/kg/injection, schedule: Q01DX005 (ip), vehicle: water); 98 % of control (dose: 5.0 mg/kg/injection, schedule: Q01DX005 (ip), vehicle: distilled water + Tween-80). Further, the T/C (dose: 10.0 mg/kg/injection, schedule: Q01DX005 (ip), vehicle: distilled water + Tween-80) is 95 % of control; the T/C (dose: 20.0 mg/kg/injection, schedule: Q01DX005 (ip), vehicle: distilled water + Tween-80) is 92 % of control; the T/C (dose: 40.0 mg/kg/injection, schedule: Q01DX005 (ip), vehicle: distilled water + Tween-80) is 98 % of control; the T/C (dose: 80.0 mg/kg/injection, schedule: Q01DX005 (ip), vehicle: distilled water + Tween-80) is 92 % of control.

Turning to `NC(CS(=O)Cc1ccccc1)C(=O)O` (stereo not given), the T/C under setting [4] is 95 % of control and the T/C under setting [5] was 102 % of control.

Take `C[C@]12CC[C@H](OC(=O)COc3ccc(N(CCCl)CCCl)cc3)C[C@@H]1CC[C@@H]1[C@@H]2CC[C@]2(C)NC(=O)CC[C@@H]12`: the T/C is, setting by setting: (dose: 2.0 mg/kg/injection, schedule: Q01DX009 (ip), vehicle: saline with Tween-80) 120 % of control; (dose: 8.0 mg/kg/injection, schedule: Q01DX009 (ip), vehicle: saline with Tween-80) 151 % of control and 157 % of control and 192 % of control; (dose: 16.0 mg/kg/injection, schedule: Q01DX009 (ip), vehicle: saline with Tween-80) 180 % of control and 184 % of control and 192 % of control; (dose: 32.0 mg/kg/injection, schedule: Q01DX009 (ip), vehicle: saline with Tween-80) 107 % of control and 180 % of control and 217 % of control.
